This is an account of results in patent publication US20250051347A1, “BIFUNCTIONAL CHIMERIC HETEROCYCLIC COMPOUND AND USE THEREOF AS ANDROGEN RECEPTOR DEGRADER” (Hinova Pharmaceuticals, Inc., priority 2021, published 2025).

As a reminder, the DC50 is the midpoint of the concentration-degradation curve.

SMILES strings stand for the structures.

The target of data set [1] is T1, androgen receptor (AR) splicing variant AR-v7 (Homo sapiens, UniProt P10275).
T1 construct: The degradation activity of compounds on AR-v7 in 22RV1 cells; host or cells: 22RV1 cells
T1 sequence (P10275 1-644 isoform P10275-3): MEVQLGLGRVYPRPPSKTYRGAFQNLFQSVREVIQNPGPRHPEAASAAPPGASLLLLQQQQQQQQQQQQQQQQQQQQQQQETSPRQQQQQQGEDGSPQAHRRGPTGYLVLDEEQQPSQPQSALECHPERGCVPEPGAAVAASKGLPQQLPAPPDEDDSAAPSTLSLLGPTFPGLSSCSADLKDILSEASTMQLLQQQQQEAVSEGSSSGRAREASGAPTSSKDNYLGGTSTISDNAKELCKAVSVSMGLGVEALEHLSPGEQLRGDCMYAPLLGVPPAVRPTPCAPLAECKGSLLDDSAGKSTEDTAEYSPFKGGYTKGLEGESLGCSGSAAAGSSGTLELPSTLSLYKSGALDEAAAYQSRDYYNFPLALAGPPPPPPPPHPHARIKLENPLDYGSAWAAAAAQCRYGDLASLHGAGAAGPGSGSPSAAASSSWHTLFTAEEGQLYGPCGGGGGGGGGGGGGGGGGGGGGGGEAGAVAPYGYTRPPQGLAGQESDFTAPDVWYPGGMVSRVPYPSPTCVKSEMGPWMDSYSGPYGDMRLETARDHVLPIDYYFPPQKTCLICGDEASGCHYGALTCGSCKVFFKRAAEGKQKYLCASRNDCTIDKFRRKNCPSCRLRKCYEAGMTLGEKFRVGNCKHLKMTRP
Briefly: Degradation activity on androgen receptor splicing variant AR-v7 in 22RV1 cells (ELISA). Format: cell-based. Conditions: AR-v7 degradation in 22RV1 cells, 48 h. (ELISA stands for enzyme-linked immunosorbent assay.)

A short description of data set [2]: Pharmacokinetics in mice (plasma exposure after oral administration). Format: in vivo. As to conditions: mouse, ICR mice, oral (i.g.) 3 mg/kg, read-out: After oral administration of 3 mg/kg, mouse plasma exposure AUCinf. Here is the method: • LC-20AD high performance liquid chromatography (SHIMADZU, Japan) • API4000 triple quadrupole mass spectrometer (Applied Biosystem, USA) • Phenix Winnolin Pharmacokinetic software (Version 6.3, Certara, USA) • High speed freezing centrifuge (Thermo Fisher Scientific) • Analytical balance (Sartorius, SECURA225D-ICN) • ICR mice (Chengdu Dossy Experimental Animals CO., LTD.)
A suitable amount of drug was accurately weighed, and then the medium (5% DMSO, 15% HS-15, 80% DSW) was added to prepare the solution at a concentration of 0.1 mg/ml (i.v.) and 0.3 mg/ml (i.g.).
18 healthy adult ICR mice were divided into two groups (9 mice for i.v. group; 9 mice for i.g. group), and administered by tail vein or by gavage after fasting overnight (free drinking water); using the satellite blood collection method, 3 animals were collected at each time point, and then 0.1 ml of blood obtained at different time points was anticoagulated with EDTA-K2, centrifuged at 4° C. for 5 min to separate the plasma, and stored at −80° C. for detection. The sampling time points after i.v. administration were 5 min, 15 min, 0.5 h, 1 h, 2 h, 4 h, 8 h, 12 h, and 24 h; while the sampling time points for i.g. group were before administration (0 h) as well as 0.5 h, 1 h, 2 h, 4 h, 6 h, 8 h, 12 h, and 24 h after administration. Then, the drug concentration in plasma was determined by LC/MS/MS.

Molecule `Cc1nnc(-c2ccc(Oc3ccc(C(C)(C)c4ccc(O[C@H]5C[C@H](Nc6ccc7c(c6)C(=O)N(C6CCC(=O)NC6=O)C7=O)C5)cc4)cc3)cc2)o1` (stereo partly drawn) [Example 322, 2-(2,6-dioxopiperidin-3-yl)-5-((1r,3r)-3-(4-(2-(4-(4-(5-methyl-1,3,4-oxadiazol-2-yl)phenoxy)phenyl)propan-2-yl)phenoxy)cyclobutyl)aminoisoindolin-1,3-dione] had a DC50 in data set [1] (class symbols) below 0.01 µM. For the same molecule, the AUC(0-inf) in data set [2] was 5 to 30 µg·h/mL.
Molecule `Cc1nnc(-c2ccc(Oc3ccc(C(C)(C)c4ccc(O[C@H]5C[C@H](Nc6ccc7c(c6)C(=O)N(C6CCC(=O)NC6=O)C7=O)C5)cc4)cc3)nn2)o1` (stereo partly drawn) [Example 330] gave a DC50 in data set [1] (class symbols) of 0.011 to 0.1 µM. The AUC(0-inf) in data set [2] is 5 to 30 µg·h/mL.
In data set [1] (class symbols), `C=CC(c1ccc(Oc2ncc(-n3nccn3)cn2)cc1)c1ccc(O[C@H]2C[C@H](Nc3ccc4c(c3)C(=O)N(C3CCC(=O)NC3=O)C4=O)C2)cc1` (stereo partly drawn) [Example 370, 5-(((1r,3r)-3-(4-(1-(4-((5-(2H-1,2,3-triazole-2-yl)pyrimidin-2-yl)oxy)phenyl)allyl)phenoxy)cyclobutyl)amino)-2-(2,6-dioxopiperidin-3-yl)isoindolin-1,3-dione] registered a 50% degradation concentration (DC50) of 0.011 to 0.1 µM. Also, the AUC(0-inf) in data set [2] lay in the range of 5 to 30 µg·h/mL.
With `CC(C)(c1ccc(OCc2cccc(-n3ccnn3)n2)cc1)c1ccc(O[C@H]2C[C@H](Nc3ccc4c(c3)C(=O)N(C3CCC(=O)NC3=O)C4=O)C2)cc1` (stereo partly drawn) [Example 415], the DC50 in data set [1] (class symbols) was in the range of 0.011 to 0.1 µM. The AUC(0-inf) in data set [2] was in the range of 5 to 30 µg·h/mL.
In data set [1] (numeric values), `CC(C)(c1ccc(O)cc1)c1ccc(OCCCCCCCCOCCCCNc2ccc3c(c2)C(=O)N(C2CCC(=O)NC2=O)C3=O)cc1` (stereo not drawn) [Example 438, 2-(2,6-dioxopiperidin-3-yl)-5-((4-((8-(4-(2-(4-hydroxylphenyl)propan-2-yl)phenoxy)octyl)oxy)butyl)amino)isoindolin-1,3-dione] registered a 50% degradation concentration (DC50) above 2 µM. Also, the AUC(0-inf) in data set [2] lay in the range of 5 to 30 µg·h/mL.
As for `CC(C)(c1ccc(OCc2ccnc(-n3cc(F)cn3)n2)cc1)c1ccc(O[C@H]2C[C@@H](Nc3ccc4c(c3)C(=O)N(C3CCC(=O)NC3=O)C4=O)C2)cc1` (stereo partly drawn) [Example 460], the DC50 in data set [1] (class symbols) lay within 0.011 to 0.1 µM. Further, in data set [2], the AUC(0-inf) was in the range of 0.1 to 1 µg·h/mL.
In data set [1] (class symbols), `Cc1nnc(-c2cnc(Oc3ccc(C(C)(C)c4ccc(O[C@H]5C[C@H](Nc6ccc7c(c6)C(=O)N(C6CCC(=O)NC6=O)C7=O)C5)cc4)cc3)nc2)o1` (stereo partly drawn) [Example 475, 2-(2,6-dioxopiperidin-3-yl)-5-(((1r,3r)-3-(4-(2-(4-((5-(5-methyl-1,3,4oxadiazol-2-yl)pyrimidin-2-yl)oxy)phenyl)propan-2-yl)phenoxy)cyclobutyl)amino)isoindolin-1,3-dione] registered a DC50 of 0.011 to 0.1 µM. For the same molecule, in data set [2], the AUC(0-inf) was 5 to 30 µg·h/mL.
On the same counts, the results for `CC(C)(c1ccc(OCc2ccnc(N3CC4(COC4)C3)n2)cc1)c1ccc(C(=O)NCCNc2ccc3c(c2)C(=O)N(C2CCC(=O)NC2=O)C3=O)cc1` (stereo not drawn) [Example 501] are 0.011 to 0.1 µM and 1 to 5 µg·h/mL.
The like results for `CC(C)(c1ccc(OCc2ccnc(N3CC4(COC4)C3)n2)cc1)c1ccc(C(=O)Nc2ccc3c(c2)C(=O)N(C2CCC(=O)NC2=O)C3=O)cc1` (stereo not drawn) [Example 504, 4-(2-(4-((2-(2-oxa-6-azaspiro[3.3]heptan-6-yl)pyrimidin-4-yl)methoxy)phenyl)propan-2-yl)-N-(2-(2,6-dioxopiperidin-3-yl)-1,3-dioxoisoindolin-5-yl)benzamide] were, in that order, 0.101 to 1 µM and 0.1 to 1 µg·h/mL.
Regarding `O=C1CCC(N2C(=O)c3ccc(N[C@H]4C[C@H](Oc5ccc(Cc6ccc(Oc7cnc(-n8ccnn8)nc7)cc6)cc5)C4)cc3C2=O)C(=O)N1` (stereo partly drawn) [Example 521], the DC50 in data set [1] (class symbols) was in the range of 0.011 to 0.1 µM. Besides, the AUC(0-inf) in data set [2] lay in the range of 5 to 30 µg·h/mL.
`CC(=O)c1nccc(COc2ccc(C(C)(C)c3ccc(OC4CN(c5ccc6c(c5)C(=O)N(C5CCC(=O)NC5=O)C6=O)C4)cc3)cc2)n1` (stereo not drawn) [Example 558]: the DC50 in data set [1] (numeric values) is above 10 µM. In addition, the AUC(0-inf) in data set [2] was in the range of 5 to 30 µg·h/mL.
`Cc1noc(-c2ccc(Oc3ccc(C(C)(C)c4ccc(O[C@H]5C[C@H](Nc6ccc7c(c6)C(=O)N(C6CCC(=O)NC6=O)C7=O)C5)cc4)cc3)cn2)n1` (stereo partly drawn) [Example 582] displayed a DC50 in data set [1] (class symbols) of 0.011 to 0.1 µM. In data set [2], the AUC(0-inf) lay within 1 to 5 µg·h/mL.
